# According to US20240024302A1, “SOLUBLE EPOXIDE HYDROLASE (sEH) INHIBITORS AND DUAL COX/sEH INHIBITORS FOR THE TREATMENT OF ARRHYTHMOGENIC CARDIOMYOPATHY” (BETH ISRAEL DEACONESS MEDICAL CENTER, INC., priority 2020, published 2024):
# Legend:
# [1] = Mouse PK, single oral gavage; details: single dose 0.3 mg/kg; for AUC: Mouse AUC; for half-life: Mouse T1/2, oral gavage; for Tmax: Mouse Tmax
# [2] = Rat PK, single oral gavage; assay type: in vivo; details: single dose 0.1 mg/kg; for AUC / Rat AUC: PEG 300; for half-life: read-out: Rat T1/2 (converted)
# [3] = mouse, in vivo, po, 0.3 mg/kg, oral gavage, 20% PEG400 in oleic acid-rich triglyceride
# [4] = mouse, in vivo, po, 0.3 mg/kg, Mouse Cmax, oral gavage
# [5] = mouse, in vivo, po, 0.3 mg/kg, oral gavage
SMILES,"AUC [1, 3] [µM·h]","Cmax [1, 4] [nM]","half-life ([1]; mouse, in vivo, po, 0.3 mg/kg) [h]","Tmax [1, 5] [h]","Cmax ([2]; rat, in vivo) [nM]","Tmax ([2]; rat, in vivo) [h]","AUC ([2]; rat, in vivo) [µM·h]","half-life ([2]; rat, in vivo) [h]",Cmax [2] [nM],Rat T1/2 [2] [h],Rat Tmax [2] [h],Rat AUC [2] [µM·h],Mouse T1/2 ([1]; oral gavage) [h],"Mouse AUC ([1]; oral gavage, 20% PEG400 in oleic acid-rich triglyceride) [µM·h]","Cmax ([1]; read-out: Mouse Cmax, oral gavage) [nM]"
O=C(Nc1ccc(C(F)(F)F)cc1)NC1CCN(C(=O)[C@@H]2CCOC2)CC1,0.729,154,1.2,1.7,–,–,–,–,–,–,–,–,–,–,–
O=C(Nc1ccc(OC(F)(F)F)c(F)c1)NC1CCN(C(=O)[C@@H]2CCOC2)CC1,0.0973 ± 0.0001,2550,174,3.7,84 ± 6,2.9 ± 0.3,0.869 ± 0.127,3.8 ± 0.6,–,–,–,–,–,–,–
O=C(Nc1ccc(OC(F)(F)F)c(F)c1)NC1CCN(C(=O)C2CCCOC2)CC1 (stereo not drawn),0.0994 ± 0.0001,24700,1050,6,43 ± 3,2.6 ± 0.2,0.328 ± 0.018,3.7 ± 0.5,–,–,–,–,–,–,–
CC(C)C(=O)N1CCC(NC(=O)Nc2ccc(C(F)(F)F)c(F)c2)CC1,9.65,518,6.2,7.9,38 ± 3,1.8 ± 0.2,0.212 ± 0.022,2.4 ± 0.3,–,–,–,–,–,–,–
CC(C)C(=O)N1CCC(NC(=O)Nc2ccc(OC(F)(F)F)c(F)c2)CC1,4.78,162,4.8,5.9,84 ± 5,2.8 ± 0.3,0.637 ± 0.085,2.7 ± 0.4,–,–,–,–,–,–,–
CC[C@H](C)C(=O)N1CCC(CC(=O)Nc2ccc(OC(F)(F)F)c(F)c2)CC1,0.0995 ± 0.0001,–,–,–,3.6 ± 0.6,1.4 ± 0.1,0.016 ± 0.001,0.9 ± 0.1,–,–,–,–,–,–,–
O=C(Nc1ccc(OC(F)(F)F)cc1)NC1CCN(C(=O)c2ccoc2)CC1,2.93,146,5.1,7.3,–,–,–,–,–,–,–,–,–,–,–
O=C(Nc1ccc(OC(F)(F)F)cc1)NC1CCN(C(=O)C2CCOC2)CC1 (stereo not drawn),12.6,703,4.6,6.6,–,–,–,–,–,–,–,–,–,–,–
Cc1occc1C(=O)N1CCC(NC(=O)Nc2ccc(OC(F)(F)F)cc2)CC1,9.99,409,6.2,9,133 ± 4,2.3 ± 0.4,1.08 ± 0.089,6 ± 0.7,–,–,–,–,–,–,–
Cc1ccoc1C(=O)N1CCC(NC(=O)Nc2ccc(OC(F)(F)F)cc2)CC1,4.56,294,3.9,5.7,–,–,–,–,–,–,–,–,–,–,–
O=C(Nc1ccc(OC(F)(F)F)c(F)c1)NC1CCN(C(=O)C2CC2)CC1,5.59,282,5.1,7.6,–,–,–,–,95 ± 3,2.9 ± 0.3,4.0 ± 0.1,1.027 ± 0.065,–,–,–
O=C(Nc1ccc(C(F)(F)F)cc1)NC1CCN(C(=O)C2CCOC2)CC1 (stereo not drawn),4.73,342,6.9,6.8,–,–,–,–,–,–,–,–,–,–,–
O=C(Nc1ccc(OC(F)(F)F)cc1)NC1CCN(C(=O)C2=COCC2)CC1,0.67,58,2.9,4.2,–,–,–,–,–,–,–,–,–,–,–
O=C(Nc1ccc(OC(F)(F)F)cc1)NC1CCN(C(=O)[C@@H]2CCOC2)CC1,0.656,50,3.4,6.2,–,–,–,–,–,–,–,–,–,–,–
CCC(=O)N1CCC(NC(=O)Nc2ccc(OC(F)(F)F)cc2)CC1 [drawing 62],–,–,–,–,133 ± 4,2.3 ± 0.4,1.08 ± 0.089,6 ± 0.7,–,–,–,–,12.1,10.65,495
O=C(Nc1ccc(OC(F)(F)F)c(F)c1)NC1CCN(C(=O)N2CCOCC2)CC1,0.0982 ± 0.0001,–,–,–,40 ± 2,2.9 ± 0.3,0.327 ± 0.032,3.6 ± 0.6,–,–,–,–,–,–,–

SMILES,"AUC [1, 3] [µM·h]","Cmax [1, 4] [nM]","half-life ([1]; mouse, in vivo, po, 0.3 mg/kg) [h]","Tmax [1, 5] [h]","Cmax ([2]; rat, in vivo) [nM]","Tmax ([2]; rat, in vivo) [h]","AUC ([2]; rat, in vivo) [µM·h]","half-life ([2]; rat, in vivo) [h]",Cmax [2] [nM],Rat T1/2 [2] [h],Rat Tmax [2] [h],Rat AUC [2] [µM·h],Mouse T1/2 ([1]; oral gavage) [h],"Mouse AUC ([1]; oral gavage, 20% PEG400 in oleic acid-rich triglyceride) [µM·h]","Cmax ([1]; read-out: Mouse Cmax, oral gavage) [nM]"
O=C(Nc1ccc(C(F)(F)F)cc1)NC1CCN(C(=O)C2CCOCC2)CC1,5.26,376,3.6,5.2,54 ± 3,2.5 ± 0.2,0.391 ± 0.031,3 ± 0.4,–,–,–,–,–,–,–
O=C(Nc1ccc(C(F)(F)F)cc1)NC1CCN(C(=O)c2cc[nH]c2)CC1,0.083,11,2,2.8,–,–,–,–,–,–,–,–,–,–,–
O=C(Nc1ccc(OC(F)(F)F)c(F)c1)NC1CCN(C(=O)C2CCOCC2)CC1,0.0985 ± 0.0001,–,–,–,103 ± 8,3.1 ± 0.2,1.24 ± 0.063,6.2 ± 0.4,–,–,–,–,–,–,–
O=C(Nc1ccc(C(F)(F)F)cc1)NC1CCN(C(=O)C2(C(F)(F)F)CC2)CC1,–,6490,356,4.7,–,–,–,–,–,–,–,–,–,–,–
CCC(=O)N1CCC(NC(=O)Nc2ccc(OC(F)(F)F)c(F)c2)CC1,20.6,978,5.4,8,–,–,–,–,196 ± 12,4.2 ± 0.8,4.5 ± 0.5,2.701 ± 0.357,–,–,–
O=C(Nc1ccc(OC(F)(F)F)c(F)c1)NC1CCN(C(=O)C2(C(F)(F)F)CC2)CC1,0.0997 ± 0.0001,–,–,–,41 ± 3,4.3 ± 0.4,0.486 ± 0.087,2.9 ± 0.3,–,–,–,–,–,–,–
CC(C)C(=O)N1CCC(CC(=O)Nc2ccc(OC(F)(F)F)c(F)c2)CC1,–,–,–,–,17 ± 2,1.6 ± 0.1,0.066 ± 0.011,1.2 ± 0.2,–,–,–,–,–,–,–
O=C(Nc1ccc(C(F)(F)F)cc1)NC1CCN(C(=O)C2=COCC2)CC1,0.875,78,2.8,4.1,–,–,–,–,–,–,–,–,–,–,–
O=C(Nc1ccc(C(F)(F)F)cc1)NC1CCN(C(=O)C2CCCOC2)CC1 (stereo not drawn),3.17,199,4.1,5.9,–,–,–,–,–,–,–,–,–,–,–
O=C(Nc1ccc(OC(F)(F)F)cc1)NC1CCN(C(=O)C2CCCOC2)CC1 (stereo not drawn),0.634,31,5.3,7.6,–,–,–,–,–,–,–,–,–,–,–
CCOC(=O)N1CCC(NC(=O)Nc2ccc(OC(F)(F)F)c(F)c2)CC1,≥ 0.0999,–,–,–,105 ± 16,3.7 ± 0.5,1.33 ± 0.093,4.7 ± 0.8,–,–,–,–,–,–,–
O=C(Nc1ccc(C(F)(F)F)cc1)NC1CCN(C(=O)c2ccoc2)CC1,0.794,28,4.2,7.3,308 ± 16,3.4 ± 0.3,3.55 ± 0.271,4.4 ± 0.4,–,–,–,–,–,–,–
O=C(Nc1ccc(OC(F)(F)F)cc1)NC1CCN(C(=O)C2CCOCC2)CC1,5.06,460,2.8,4.1,23 ± 1,4.4 ± 0.2,0.234 ± 0.019,3.7 ± 0.6,–,–,–,–,–,–,–
O=C(Nc1ccc(C(F)(F)F)c(F)c1)NC1CCN(C(=O)C2CCOCC2)CC1,0.0988 ± 0.0002,–,–,–,139 ± 9,4 ± 0.4,1.65 ± 0.042,4.5 ± 0.4,–,–,–,–,–,–,–
CC[C@H](C)C(=O)N1CCC(NC(=O)Nc2ccc(OC(F)(F)F)c(OC(F)(F)F)c2)CC1,≥ 0.0999,–,–,–,11 ± 1,2.5 ± 0.2,0.075 ± 0.006,2.3 ± 0.4,–,–,–,–,–,–,–
O=C(O)CC1(CC(=O)N2CCC(NC(=O)Nc3ccc(C(F)(F)F)cc3)CC2)CCCCC1,11.6,590,5,7.4,–,–,–,–,–,–,–,–,–,–,–
